Results as given in the supplement of paper PMC10307832.

Tests used:
Test in all cases: relative viability (nuclei count vs DMSO), 5 days (fraction); higher = more cells survive
[1] = compound: C=CCc1cccc(/C=N/NC(=O)CN2CCN(Cc3ccccc3)CC2)c1O [PAC-1] + N=C(N)NC(=N)NCCc1ccccc1 [Phenformin] (partner 250 µM)
In short: (§1)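 Nuclei were stained with Hoechst during a one-step fixation (final 0.05% Triton X-100, 1% formaldehyde, 1 ug/ml Hoechst) carried out 5 days after dosing, then counted on 4× images. The cells, lung cancer lines in 1536-well plates, had been dosed by pin tool the day after seeding with one drug alone or a fixed anchor-drug dose plus five library-drug doses (not always all listed) in √10 steps. Relative viability is the nuclei count in treated wells divided by that in vehicle wells, and each value is the median of duplicate plates.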

[2] = compound: C=CC(=O)N1CCC[C@@H](n2nc(-c3ccc(Oc4ccccc4)cc3)c3c(N)ncnc32)C1 [Ibrutinib] + Cc1cc(Nc2cc(N3CCN(C)CC3)nc(Sc3ccc(NC(=O)C4CC4)cc3)n2)n[nH]1 [Tozasertib] (partner 0.1 µM)
In short: as §1

[3] = compound: C=CC(=O)N1CCC[C@@H](n2nc(-c3ccc(Oc4ccccc4)cc3)c3c(N)ncnc32)C1 [Ibrutinib] + O=C(CCCCCCC(=O)Nc1ccccc1)NO [Vorinostat] (partner 1 µM)
In short: as §1

[4] = compound: C=CC(=O)Nc1cc(-n2c(=O)ccc3cnc4ccc(-c5ccc(NS(C)(=O)=O)cc5)cc4c32)ccc1C [BMX-IN-1] + CC(=O)c1c(C)c2cnc(Nc3ccc(N4CCNCC4)cn3)nc2n(C2CCCC2)c1=O [Palbociclib] (partner 0.5 µM)
In short: as §1

## NCI-H2405
[1]; first compound 0.02 µM
  relative viability: 0.398
[1]; first compound 0.06325 µM
  relative viability: 0.403
[1]; first compound 0.2 µM
  relative viability: 0.391
[1]; first compound 2 µM
  relative viability: 0.361
[2]; first compound 0.005 µM
  relative viability: 0.85
[2]; first compound 0.01581 µM
  relative viability: 0.739
[2]; first compound 0.05 µM
  relative viability: 0.798
[2]; first compound 0.1581 µM
  relative viability: 0.75
[2]; first compound 0.5 µM
  relative viability: 0.717
[3]; first compound 0.005 µM
  relative viability: 0.913
[3]; first compound 0.01581 µM
  relative viability: 1.12
[3]; first compound 0.5 µM
  relative viability: 1.03
[4]; first compound 0.02 µM
  relative viability: 0.574
[4]; first compound 0.2 µM
  relative viability: 0.585
[4]; first compound 0.6325 µM
  relative viability: 0.584
[4]; first compound 2 µM
  relative viability: 0.542

## NCI-H3122
[1]; first compound 0.02 µM
  relative viability: 0.378
[1]; first compound 0.06325 µM
  relative viability: 0.377
[1]; first compound 0.2 µM
  relative viability: 0.365
[1]; first compound 2 µM
  relative viability: 0.333
[2]; first compound 0.005 µM
  relative viability: 0.507
[2]; first compound 0.01581 µM
  relative viability: 0.395
[2]; first compound 0.05 µM
  relative viability: 0.343
[2]; first compound 0.1581 µM
  relative viability: 0.415
[2]; first compound 0.5 µM
  relative viability: 0.46
[3]; first compound 0.005 µM
  relative viability: 1.05
[3]; first compound 0.01581 µM
  relative viability: 0.944
[3]; first compound 0.05 µM
  relative viability: 0.874
[3]; first compound 0.1581 µM
  relative viability: 0.858
[3]; first compound 0.5 µM
  relative viability: 1.06
[4]; first compound 0.02 µM
  relative viability: 0.193
[4]; first compound 0.2 µM
  relative viability: 0.204
[4]; first compound 0.6325 µM
  relative viability: 0.174
[4]; first compound 2 µM
  relative viability: 0.164

## PC-3 [JPC-3]
[1]; first compound 0.02 µM
  relative viability: 0.484
[1]; first compound 0.06325 µM
  relative viability: 0.468
[1]; first compound 0.2 µM
  relative viability: 0.461
[1]; first compound 2 µM
  relative viability: 0.489
[2]; first compound 0.005 µM
  relative viability: 0.872
[2]; first compound 0.01581 µM
  relative viability: 0.772
[2]; first compound 0.05 µM
  relative viability: 0.873
[2]; first compound 0.1581 µM
  relative viability: 0.99
[2]; first compound 0.5 µM
  relative viability: 0.681
[3]; first compound 0.005 µM
  relative viability: 0.664
[3]; first compound 0.01581 µM
  relative viability: 0.774
[3]; first compound 0.05 µM
  relative viability: 0.497
[3]; first compound 0.1581 µM
  relative viability: 0.289
[3]; first compound 0.5 µM
  relative viability: 0.399
[4]; first compound 0.02 µM
  relative viability: 0.544
[4]; first compound 0.2 µM
  relative viability: 0.598
[4]; first compound 0.6325 µM
  relative viability: 0.546
[4]; first compound 2 µM
  relative viability: 0.521

## PC-14
[1]; first compound 0.02 µM
  relative viability: 0.59
[1]; first compound 0.06325 µM
  relative viability: 0.683
[1]; first compound 0.2 µM
  relative viability: 0.727
[1]; first compound 2 µM
  relative viability: 0.633
[2]; first compound 0.005 µM
  relative viability: 0.646
[2]; first compound 0.01581 µM
  relative viability: 0.536
[2]; first compound 0.05 µM
  relative viability: 0.568
[2]; first compound 0.1581 µM
  relative viability: 0.556
[2]; first compound 0.5 µM
  relative viability: 0.452
[3]; first compound 0.005 µM
  relative viability: 0.723
[3]; first compound 0.01581 µM
  relative viability: 0.662
[3]; first compound 0.05 µM
  relative viability: 0.611
[3]; first compound 0.1581 µM
  relative viability: 0.944
[3]; first compound 0.5 µM
  relative viability: 0.324
[4]; first compound 0.02 µM
  relative viability: 0.583
[4]; first compound 0.2 µM
  relative viability: 0.478
[4]; first compound 0.6325 µM
  relative viability: 0.58
[4]; first compound 2 µM
  relative viability: 0.47

## RERF-LC-KJ
[1]; first compound 0.02 µM
  relative viability: 0.414
[1]; first compound 0.06325 µM
  relative viability: 0.392
[1]; first compound 0.2 µM
  relative viability: 0.407
[1]; first compound 2 µM
  relative viability: 0.427
[2]; first compound 0.005 µM
  relative viability: 0.59
[2]; first compound 0.01581 µM
  relative viability: 0.5
[2]; first compound 0.05 µM
  relative viability: 0.467
[2]; first compound 0.1581 µM
  relative viability: 0.537
[2]; first compound 0.5 µM
  relative viability: 0.544
[3]; first compound 0.005 µM
  relative viability: 0.631
[3]; first compound 0.01581 µM
  relative viability: 0.703
[3]; first compound 0.05 µM
  relative viability: 0.593
[3]; first compound 0.1581 µM
  relative viability: 0.668
[3]; first compound 0.5 µM
  relative viability: 0.659
[4]; first compound 0.02 µM
  relative viability: 1.15
[4]; first compound 0.2 µM
  relative viability: 1.11
[4]; first compound 0.6325 µM
  relative viability: 1.18
[4]; first compound 2 µM
  relative viability: 1.16

## SK-LU-1
[1]; first compound 0.02 µM
  relative viability: 0.568
[1]; first compound 0.06325 µM
  relative viability: 0.547
[1]; first compound 0.2 µM
  relative viability: 0.432
[1]; first compound 2 µM
  relative viability: 0.587
[2]; first compound 0.005 µM
  relative viability: 0.363
[2]; first compound 0.01581 µM
  relative viability: 0.252
[2]; first compound 0.05 µM
  relative viability: 0.399
[2]; first compound 0.1581 µM
  relative viability: 0.347
[2]; first compound 0.5 µM
  relative viability: 0.33
[3]; first compound 0.005 µM
  relative viability: 0.883
[3]; first compound 0.01581 µM
  relative viability: 0.715
[3]; first compound 0.05 µM
  relative viability: 0.765
[3]; first compound 0.1581 µM
  relative viability: 0.813
[3]; first compound 0.5 µM
  relative viability: 0.766
[4]; first compound 0.02 µM
  relative viability: 0.323
[4]; first compound 0.2 µM
  relative viability: 0.399
[4]; first compound 0.6325 µM
  relative viability: 0.385
[4]; first compound 2 µM
  relative viability: 0.335

## SW 900
[1]; first compound 0.02 µM
  relative viability: 0.43
[1]; first compound 0.06325 µM
  relative viability: 0.575
[1]; first compound 0.2 µM
  relative viability: 0.568
[1]; first compound 2 µM
  relative viability: 0.415
[2]; first compound 0.05 µM
  relative viability: 0.663
[2]; first compound 0.1581 µM
  relative viability: 0.627
[2]; first compound 0.5 µM
  relative viability: 0.59
[3]; first compound 0.005 µM
  relative viability: 0.343
[3]; first compound 0.01581 µM
  relative viability: 0.43
[3]; first compound 0.05 µM
  relative viability: 0.488
[3]; first compound 0.1581 µM
  relative viability: 0.4
[3]; first compound 0.5 µM
  relative viability: 0.527
[4]; first compound 0.02 µM
  relative viability: 0.467
[4]; first compound 0.2 µM
  relative viability: 0.676
[4]; first compound 0.6325 µM
  relative viability: 0.53
[4]; first compound 2 µM
  relative viability: 0.626

## SW 1573
[1]; first compound 0.02 µM
  relative viability: 0.372
[1]; first compound 0.06325 µM
  relative viability: 0.352
[1]; first compound 0.2 µM
  relative viability: 0.36
[1]; first compound 2 µM
  relative viability: 0.303
[2]; first compound 0.005 µM
  relative viability: 0.189
[2]; first compound 0.01581 µM
  relative viability: 0.169
[2]; first compound 0.05 µM
  relative viability: 0.195
[2]; first compound 0.1581 µM
  relative viability: 0.174
[2]; first compound 0.5 µM
  relative viability: 0.184
[3]; first compound 0.01581 µM
  relative viability: 0.793
[3]; first compound 0.05 µM
  relative viability: 0.694
[3]; first compound 0.1581 µM
  relative viability: 1.06
[3]; first compound 0.5 µM
  relative viability: 1.06
[4]; first compound 0.02 µM
  relative viability: 0.411
[4]; first compound 0.2 µM
  relative viability: 0.413
[4]; first compound 0.6325 µM
  relative viability: 0.391
[4]; first compound 2 µM
  relative viability: 0.334

## UMC-11
[1]; first compound 0.02 µM
  relative viability: 0.325
[1]; first compound 0.06325 µM
  relative viability: 0.368
[1]; first compound 0.2 µM
  relative viability: 0.298
[1]; first compound 2 µM
  relative viability: 0.326
[2]; first compound 0.005 µM
  relative viability: 0.194
[2]; first compound 0.01581 µM
  relative viability: 0.203
[2]; first compound 0.05 µM
  relative viability: 0.203
[2]; first compound 0.1581 µM
  relative viability: 0.203
[2]; first compound 0.5 µM
  relative viability: 0.188
[3]; first compound 0.005 µM
  relative viability: 0.39
[3]; first compound 0.01581 µM
  relative viability: 0.376
[3]; first compound 0.05 µM
  relative viability: 0.454
[3]; first compound 0.1581 µM
  relative viability: 0.345
[4]; first compound 0.02 µM
  relative viability: 0.345
[4]; first compound 0.2 µM
  relative viability: 0.336
[4]; first compound 0.6325 µM
  relative viability: 0.341
[4]; first compound 2 µM
  relative viability: 0.318
